This note sets out measurements from US10851152B2, “Polymerized peptide and gel having collagen-like structure” (WASEDA UNIVERSITY, priority 2015, dated 2020).

Non-standard residues stand in square brackets, D forms with d. No end group written: not given here. Hyp = O=C(O)[C@@H]1C[C@@H](O)CN1

One data set has as its system HDF. Kind of data set: Cell adhesion assay on coated 96-well plate, HDF. In kind it is cell-based, Human. The following applies: 37° C., 5% CO2, 60 min. As for the experimental part:
(§1) D-MEM High Glucose, D-MEM Low Glucose and 0.5% trypsin/EDTA were purchased from Wako Pure Chemical Industries, Ltd. (Osaka); FBS, penicillin. streptomycin (100×) were purchased from Invitrogen (Thermo Fisher Scientific corporation). Human mammary gland cancer (MDA-MB-231) was purchased from ATCC; Human skin fibroblasts (HDF) were purchased from Cell Applications. MDA-MB-231 was cultured using DMEM High Glucose (10% FBS, 100 Units/ml penicillin, 100 μg/ml streptomycin), and then maintained; and HDF was cultured using DMEM Low Glucose (10% FBS, 100 Units/ml penicillin, 100 μg/ml streptomycin), and then maintained. When used in cell adhesion assay and Western blotting, the cells were treated with 0.05% trypsin/EDTA, and then collected in a 15 ml tube to be subjected to centrifugal treatment at 1,200 rpm for four minutes. After the removal of the supernatant, the cells were suspended with an incubation medium by which the cells were incubated at 37° C. for 20 to 30 min and then recovered. Such cell suspension was used for cell adhesion assay and Western blotting.
(§2) Type I collagen (KOKEN CO., LTD, Tokyo) and BSA (Jackson Immuno Research Laboratories Inc., USA), in an aqueous solution as 30 μg/ml, were added to a 96-well plate (Nunc MicroWell 96-Well Microplates) by an amount of 50 μl/well, followed by drying the sample for two nights. Collagen-like peptides having no Cys residue were prepared as aqueous solutions of 1 to 3 mg/ml, and then heated at 95° C. for 5 min, followed by storing them at 4° C. overnight to form the triple-helical structure. Then, they were diluted to 30 μg/ml, and then added to a 96-well plate in an amount of 50 μl/well followed by drying them for two nights. Collagen-like peptides having Cys residues were dissolved in a degassed 0.05% (v/v) TFA aqueous solution, followed by preparing to a concentration of 300 μg/ml, and then heating the sample at 80° C. for 5 min. […] Further, a mineral oil was layered on the peptide solution, and such peptide solution was then oxidized at room temperature until thiol could no longer be detected by Ellman's test. […]

The subject of a further data set is MDA-MB-231. As to the kind of experiment: Cell adhesion assay on coated 96-well plate, MDA-MB-231. The following applies: for cell adhesion of MDA-MB-231: coated 96-well plate. The class given is cell-based, Human. As for the experimental part:
as §1, §2

The nature of data set [1]: Hydrogel formation judged by holding of a stainless ball. The class given is physicochemical. The conditions noted are these: 1% (w/v) peptide, 10% DMSO, room temperature, up to three days. As for the experimental part:
Degassed water was used to prepare a peptide solution having a concentration of 1.11% (w/v) or 1.66% (w/v), and the solution was then put into a PCR tube. After heating this solution at 80° C. for 5 min using a polymerase chain reaction (PCR) machine (TaKaRa PCR Thermal Cycler, TAKARA BIO INC.), the solution was then left to stand at 4° C. overnight. By adding DMSO and water to this solution, there was prepared a peptide solution having a concentration of 10% DMSO, 0.1 to 1.5% (w/v). The PCR tube was then filled with a mineral oil in a way such that the mineral oil covered the liquid surface, followed by allowing the solution to stand at room temperature for a given period of time to achieve a gel. Then, gel formation was determined by looking at whether a stainless ball could be held by the gel.

Data set [2] is described as follows: Remaining thiol group (Ellman's reagent) in oxidative polymerization reaction. The class given is physicochemical. The following applies: SH amount at 0 hour being 100%; 10% DMSO, peptide 1% (w/v); 74 hours. Here is the method: Degassed water was used to prepare a peptide solution having a concentration of 1.11% (w/v), and the solution was then put into a PCR tube. After heating this solution at 80° C. for 5 min, it was then left to sand still at 4° C. overnight. By adding DMSO to this solution, there was prepared a peptide solution having a final concentration of 10% DMSO, peptide 1% (w/v). The PCR tube was then filled with a mineral oil in a way such that the mineral oil covered the surface of the solution. In every measurement, the mineral oil was eliminated from the peptide solution to prepare a peptide solution for oxidation monitoring. Ellman's reagent was prepared in a way such that 9 mg/ml of DTNB was present in 50 mM of a phosphate buffer solution (pH 8.4). 33 mM phosphate buffer solution (pH 8.4) and Ellman's reagent 1.5 mg/ml were left to stand for […], then a light absorbance was then measured after a solution with a final concentration of peptide 0.167 mg/ml. Recorded were changes in absorbance with time, with a moment when DMSO was added being a starting point (0 hour). Since the Ellman's reagent generates 5-mercapto-2-nitrobenzoate (λ max=412 nm, ε=1.55×10^4) depending on the amount of thiol groups (referred to as “SH groups” hereunder) in the peptide, measured was a absorbance at 412 nm. After the measurement, optical path length was compensated by measuring absorbance at 997 nm and 900 nm.
On the technique in general: Ellman's reagent forms a yellow product with free thiols.

Data set [3] is described as follows: CD spectrum measurement of triple-helical structure and its thermal stability. In kind it is physicochemical. The following applies: 1 mg/ml in 0.05% TFA/H2O; measured at 4° C., 37° C. and 80° C. Here is the method: The structure of the peptide was confirmed by CD spectrum (circular dichroism spectrometer J-820, JASCO Corporation). A peptide powder was dissolved in a degassed 0.05% TFA/H2O to prepare a solution of 1 mg/ml. After heating at 80° C. for 5 min, the solution was left to stand at 4° C. overnight to cause refolding as a measurement sample. CD spectrum was measured under the conditions of: temperature 4° C., 37° C., 80° C.; cell length 0.05 cm; sensitivity standard (100 mdeg); measurement wavelength 250 to 190 nm; data collection interval 0.2 nm; scanning speed 50 nm/min; response 0.5 sec; band width 1 nm; cumulated number 4. A signal obtained (θobs) was expressed as a residue average molar ellipticity (θmrw). θmrw was calculated by the following formula.
A thermal stability of the triple-helical structure was observed by monitoring θmrw, 225 associated with a change in temperature. The measurement conditions were: 4 to 75° C. or 4 to 90° C.; cell length 0.05 cm; measurement wavelength 225 nm; data collection interval 0.5° C.; temperature gradient 18° C./h; sensitivity standard (100 mdeg); response 2 sec; band width 1 nm. It was determined that the triple-helical structure completely turned into a random coil structure in a region where the signal was linearly diminishing.

In the case of “Ac-G(POG)4FOGERG(POG)5-NH2 (GPPGPPGPPGPPGFPGERGPPGPPGPPGPPGPPG; HELM PEPTIDE1{[ac].G.P.[Hyp].G.P.[Hyp].G.P.[Hyp].G.P.[Hyp].G.F.[Hyp].G.E.R.G.P.[Hyp].G.P.[Hyp].G.P.[Hyp].G.P.[Hyp].G.P.[Hyp].G.[am]}$$$$V2.0; SMILES CC(=O)NCC(=O)N1CCC[C@H]1C(=O)N1C[C@H](O)C[C@H]1C(=O)NCC(=O)N1CCC[C@H]1C(=O)N1C[C@H](O)C[C@H]1C(=O)NCC(=O)N1CCC[C@H]1C(=O)N1C[C@H](O)C[C@H]1C(=O)NCC(=O)N1CCC[C@H]1C(=O)N1C[C@H](O)C[C@H]1C(=O)NCC(=O)N[C@@H](Cc1ccccc1)C(=O)N1C[C@H](O)C[C@H]1C(=O)NCC(=O)N[C@@H](CCC(=O)O)C(=O)N[C@@H](CCCNC(=N)N)C(=O)NCC(=O)N1CCC[C@H]1C(=O)N1C[C@H](O)C[C@H]1C(=O)NCC(=O)N1CCC[C@H]1C(=O)N1C[C@H](O)C[C@H]1C(=O)NCC(=O)N1CCC[C@H]1C(=O)N1C[C@H](O)C[C@H]1C(=O)NCC(=O)N1CCC[C@H]1C(=O)N1C[C@H](O)C[C@H]1C(=O)NCC(=O)N1CCC[C@H]1C(=O)N1C[C@H](O)C[C@H]1C(=O)NCC(N)=O) [Soluble GFOGER]”, the “cell adhesion of HDF” value in the data set with HDF is reported as “cellular adhesion was not observed”. Besides, the “cell adhesion of MDA-MB-231” value in the data set with MDA-MB-231 is “cell adhesion was not observed”. Regarding “G(POG)4PRGQOGVMGFOG(POG)4-NH2 [Soluble GVMGFO]”, in the data set with HDF, the “cell adhesion of HDF” value is given as “cellular adhesion was not observed”. Consider “G(POG)7IKGHRGFSGLOG(POG)6-NH2 [Soluble KGHRGF]”, for which, in the data set on HDF, the “cell adhesion of HDF” value is reported as “cellular adhesion was not observed”. Turning to “YCC(POG)5FOGERG(POG)5CCY (YCCP[Hyp]GP[Hyp]GP[Hyp]GP[Hyp]GP[Hyp]GF[Hyp]GERGP[Hyp]GP[Hyp]GP[Hyp]GP[Hyp]GP[Hyp]GCCY; not fully specified; cysteine pairing not given here) [YCC2-GFOGER]”, the “content of YCC2-GFOGER giving the same level of cell adhesion capability as collagen” value in the data set with MDA-MB-231 (mixed polymerized peptide of YCC2 and YCC2-GFOGER, MDA-MB-231, 180 min) was 30%. As for “YCCGPPOGGOPOGPPOGGOPOGRPOGPPOGGOPOGCCY (YCCGPP[Hyp]GG[Hyp]P[Hyp]GPP[Hyp]GG[Hyp]P[Hyp]GRP[Hyp]GPP[Hyp]GG[Hyp]P[Hyp]GCCY; not fully specified; cysteine pairing not given here) [YCC2-Scr]”, the gel-forming capability entry in data set [1] was “did not turn into a gel”. Besides, in data set [2], the “ratio of SH amount” value was “approximately 0%”. Besides, the “formation of triple-helical structure (CD spectrum, positive Cotton effect at about 225 nm)” value in data set [3] is recorded as “did not form the triple-helical structure”.

In the case of gelatin, the “cell adhesion of MDA-MB-231” value in the data set on MDA-MB-231 is “Significant cell adhesion was observed”.
